This note sets out measurements from ChEMBL document CHEMBL1153303, “Iodine-catalyzed one-pot synthesis and antimalarial activity evaluation of symmetrically and asymmetrically substituted 3,6-diphenyl[1,2,4,5]tetraoxanes” (Bioorg Med Chem Lett, 2009).

For series [1], the system named is Vero. Nature of the series: Cytotoxicity against african green monkey Vero cells up to 16.72 uM after 72 hrs by neutral red assay. It counts as cell-based. The settings on record: chlorocebus sabaeus.
Series [2] can be described thus: Selectivity index, ratio of IC50 for african green monkey (Cercopithecus aethiops) Vero cells to IC50 for Plasmodium falciparum D6. In kind it is toxicity, cell-based. The settings on record: read-out: Ratio IC50.
Series [3] can be described thus: Selectivity index, ratio of IC50 for african green monkey (Cercopithecus aethiops) Vero cells to IC50 for Plasmodium falciparum W2. It counts as toxicity, cell-based. The settings on record: read-out: Ratio IC50.
The test system of series [4] is Plasmodium falciparum. Nature of the series: Antimalarial activity against chloroquine-sensitive Plasmodium falciparum D6 in erythrocytes after 72 hrs by LDH activity. It counts as functional, organism-based. As to conditions: D6, 72 h.
The subject of series [5] is Plasmodium falciparum. Nature of the series: Antimalarial activity against chloroquine-resistant Plasmodium falciparum W2 in erythrocytes after 72 hrs by LDH activity. In kind it is functional, organism-based. The settings on record: W2, 72 h.

Turning to `CC(C)(C)c1ccc(C2OOC(c3ccc(C(C)(C)C)cc3)OO2)cc1` (stereo not drawn), the Activity entry in series [1] was “Non-toxic”. Moreover, the values for the selectivity ratio in series [2] and in series [3] were greater than 6.1 and greater than 3.4, respectively.

In the case of `Cc1ccc(C2OOC(c3ccc(C(C)C)cc3)OO2)cc1` (stereo not drawn), in series [1], the Activity result is “Non-toxic”. Besides, the selectivity ratio in series [2] was greater than 26.4; in series [3], greater than 20.7.

As for `COC(=O)c1ccc(C2OOC(c3ccc(C)cc3)OO2)cc1` (stereo not drawn), the IC50 worked out at 3790 nM in series [4] and 6010 nM in series [5]. Further, the Activity entry in series [1] is listed as “Non-toxic”. In addition, the figures for the selectivity ratio in series [2] and in series [3] were greater than 4 and greater than 2.5, respectively.

With `CCCc1ccc(C2OOC(c3ccc(CCC)cc3)OO2)cc1` (stereo not drawn), the Activity entry in series [1] was “Non-toxic”. The results for the selectivity ratio in series [2] and in series [3] were greater than 23.8 and greater than 19, respectively.

As to `CCCCc1ccc(C2OOC(c3ccc(CCCC)cc3)OO2)cc1` (stereo not drawn), in series [1], the Activity result is “Non-toxic”. Further, the selectivity ratio is greater than 3.7 in series [2] and greater than 2.8 in series [3].

Take `CCc1ccc(C2OOC(c3ccc(C)cc3)OO2)cc1` (stereo not drawn): the Activity result in series [1] is given as “Non-toxic”. The selectivity ratio is greater than 43.6 in series [2] and greater than 36.7 in series [3].

Regarding `Cc1ccc(C2OOC(c3ccc(C(C)(C)C)cc3)OO2)cc1` (stereo not drawn), the Activity entry in series [1] is reported as “Non-toxic”. Further, the selectivity ratio in series [2] was greater than 25.1; in series [3] it was greater than 19.

Regarding `COc1ccc(C2OOC(c3ccc(C)cc3)OO2)cc1` (stereo not drawn), the Activity entry in series [1] is reported as “Non-toxic”. Moreover, the selectivity ratio in series [2] was greater than 21.6; in series [3], greater than 15.4.

As to `CC(C)c1ccc(C2OOC(c3ccc(C(C)C)cc3)OO2)cc1` (stereo not drawn), the Activity entry in series [1] is listed as “Non-toxic”. Moreover, the selectivity ratio in series [2] is greater than 21.6; in series [3] it was greater than 14.

For `CCc1ccc(C2OOC(c3ccc(CC)cc3)OO2)cc1` (stereo not drawn), the IC50 in series [4] came out at 990 nM. In addition, in series [1], the Activity entry is recorded as “Non-toxic”. Besides, the selectivity ratio in series [2] and in series [3] was greater than 15.9 throughout.

Consider `C[C@@H]1CC[C@H]2[C@@H](C)C(=O)O[C@@H]3O[C@@]4(C)CC[C@@H]1[C@]32OO4` [ARTEMISININ], for which the midpoint of inhibition in series [5], the IC50, lay at 15 nM. For the same molecule, the Activity result in series [1] was “Non-toxic”. Also, the selectivity ratio in series [2] is greater than 476; in series [3], greater than 1400.

On to `CCN(CC)CCCC(C)Nc1ccnc2cc(Cl)ccc12` (stereo not drawn) [CHLOROQUINE], for which, in series [1], the Activity result is recorded as “Non-toxic”.

What is called IC50 is the concentration that inhibits the measured activity by half.
